Assays:
Pansy plants [1] = experiment: Pansy shelf life under drought (daily wilting rating, sales index); type: in vivo
Description: All studies were conducted in the greenhouse at the research farm of Valent BioSciences Corporation (Long Grove, Ill.). Pansy plants were obtained either from local retailers as mature plants, or plugs from wholesale nurseries. Plugs of Pansy plants were transplanted into an 18-cell flat filled with Promix BX (available from Premier Horticulture Inc. Quakertown, Pa.) and grown for about 30 days prior to treatment. During growing periods, plants received daily irrigation and weekly fertilizer (1 g/L all purpose fertilizer 20-20-20, The Scotts Company, Marysville, Ohio).
(§1) Uniform plants were selected for the study. Prior to chemical treatment, plants were saturated with water and then drained for about two hours. A total of 20 mL chemical solution, which is equivalent to about 10% of the cell volume, was applied to each plant with 3 mL solution foliar applied to canopy and 17 mL solution drench applied to root zone. Unless specified, watering of plants was stopped after chemical treatment.
(§2) After chemical treatment, plants were arranged in a randomized complete block experimental design. The plants were rated daily for the extent of wilting on a scale from 1 (no wilting) to 4 (complete wilting) to generated a sales index rating. A rating of 2.5 was the point at which a plant was determined to be unmarketable and the previous day was recorded as the shelf life of that plant in days. Yellow leaf number was counted at 3 days after chemical treatment. Leaf transpiration rate was measured after treatment using a LI-1600 Steady State Porometer (LI-Cor, Lincoln, Nebr.). The transpiration rate of each treatment was calculated as the percentage of that of control at each day to reduce day-to-day variation caused by changes of environmental condition such as light intensity, humidity, and temperature.

Pansy plants [2] = experiment: Pansy leaf transpiration rate (LI-1600 Steady State Porometer); type: in vivo; conditions: for Transpiration rate (% of control): Matrix Premium Rose
Description: as §1, §2

Substance: (S)-5-(1-hydroxy-2,6,6,-trimethyl-4-oxo-2-cyclohexen-1-yl)-3-methyl-(2Z,4E)-pentadienoic acid [ABA]
- Shelf life (Pansy plants [1]; 0.3 mg ABA, Matrix Yellow, Table 5): 4.8 days
- Shelf life (Pansy plants [1]; 0.3 mg ABA, Matrix Yellow, Table 6): 4.8 days
- Shelf life (Pansy plants [1]; 0.3 mg ABA, Matrix Yellow, Table 17): 3.2 days
- Shelf life (Pansy plants [1]; 1 mg, Matrix Orange, drought, Table 1): 5.0 days
- Shelf life (Pansy plants [1]; 3 mg ABA, Colossus Formula Mix, no water, Table 20): 5.2 days
- Shelf life (Pansy plants [1]; 3 mg ABA, Delta Premium Pure White, Table 21): 8.3 days
- Shelf life (Pansy plants [1]; 3 mg ABA, Delta Premium Pure White, Table 22): 5.7 days
- Shelf life (Pansy plants [1]; 3 mg ABA, Delta Premium Pure White, Table 24): 5.2 days
- Shelf life (Pansy plants [1]; 3 mg ABA, Matrix Yellow, Table 5): 5.7 days
- Shelf life (Pansy plants [1]; 3 mg ABA, Matrix Yellow, Table 6): 6.0 days
- Shelf life (Pansy plants [1]; 3 mg ABA, Matrix Yellow, Table 17): 4.3 days
- Shelf life (Pansy plants [1]; 3 mg ABA, no water, Matrix Premium Rose, Table 13): 4.8 days
- Shelf life (Pansy plants [1]; 3 mg, Clear Sky Yellow, drought, Table 8): 6.5 days
- Shelf life (Pansy plants [1]; 3 mg, Crown Azure Blue, drought, Table 9): 5.2 days
- Shelf life (Pansy plants [1]; 3 mg, Delta Premium Pure Golden Yellow, advanced seedling stage (1 month old), drought, Table 4): 4.2 days
- Shelf life (Pansy plants [1]; 3 mg, Delta Premium Pure Golden Yellow, drought, Table 3): 5.3 days
- Shelf life (Pansy plants [1]; 3 mg, Matrix Orange, drought, Table 1): 5.8 days
- Shelf life (Pansy plants [1]; 3 mg, Matrix Orange, drought, Table 2): 5.2 days
- Shelf life (Pansy plants [1]; 3 mg, Matrix Yellow, drought, Table 7): 7.7 days
- Shelf life (Pansy plants [1]; 3 mg, Matrix Yellow, drought, Table 10): 4.3 days
- Shelf life (Pansy plants [1]; 10 mg, Delta Premium Pure Golden Yellow, advanced seedling stage (1 month old), drought, Table 4): 5.7 days
- Shelf life (Pansy plants [1]; 10 mg, Delta Premium Pure Golden Yellow, drought, Table 3): 6.5 days
- Shelf life (Pansy plants [1]; 10 mg, Matrix Orange, drought, Table 1): 7.0 days
- Shelf life (Pansy plants [1]; 10 mg, Matrix Orange, drought, Table 2): 6.7 days
- Shelf life (Pansy plants [1]; 30 mg ABA, Colossus Formula Mix, Table 18): 6.2 days
- Shelf life (Pansy plants [1]; 30 mg ABA, Colossus Formula Mix, no water, Table 20): 6.5 days
- Shelf life (Pansy plants [1]; 30 mg ABA, Delta Premium Pure White, Table 19): 8.7 days
- Shelf life (Pansy plants [1]; 30 mg ABA, Delta Premium Pure White, Table 21): 10.2 days
- Shelf life (Pansy plants [1]; 30 mg ABA, Delta Premium Pure White, Table 22): 9.2 days
- Shelf life (Pansy plants [1]; 30 mg ABA, Delta Premium Pure White, Table 23): 8.2 days
- Shelf life (Pansy plants [1]; 30 mg ABA, Delta Premium Pure White, Table 24): 7.2 days
- Shelf life (Pansy plants [1]; 30 mg ABA, Matrix Premium Rose, no water from 1 day after ABA, Table 11): 7.2 days
- Shelf life (Pansy plants [1]; 30 mg ABA, Matrix Yellow, Table 5): 10.2 days
- Shelf life (Pansy plants [1]; 30 mg ABA, Matrix Yellow, Table 6): 10.8 days
- Shelf life (Pansy plants [1]; 30 mg ABA, Matrix Yellow, Table 17): 8.3 days
- Shelf life (Pansy plants [1]; 30 mg ABA, no water, Matrix Premium Rose, Table 13): 7.2 days
- Shelf life (Pansy plants [1]; 30 mg, Clear Sky Yellow, drought, Table 8): 7.8 days
- Shelf life (Pansy plants [1]; 30 mg, Crown Azure Blue, drought, Table 9): 6.7 days
- Shelf life (Pansy plants [1]; 30 mg, Delta Premium Pure Golden Yellow, advanced seedling stage (1 month old), drought, Table 4): 7.7 days
- Shelf life (Pansy plants [1]; 30 mg, Delta Premium Pure Golden Yellow, drought, Table 3): 8.0 days
- Shelf life (Pansy plants [1]; 30 mg, Matrix Orange, drought, Table 1): 8.0 days
- Shelf life (Pansy plants [1]; 30 mg, Matrix Orange, drought, Table 2): 9.2 days
- Shelf life (Pansy plants [1]; 30 mg, Matrix Yellow, drought, Table 7): 9.3 days
- Shelf life (Pansy plants [1]; 30 mg, Matrix Yellow, drought, Table 10): 8.0 days
- Transpiration rate (% of control) (Pansy plants [2]; 3 mg ABA, no water, day 1 after treatment, Table 14): 22 % of control
- Transpiration rate (% of control) (Pansy plants [2]; 3 mg ABA, no water, day 2 after treatment, Table 14): 15 % of control
- Transpiration rate (% of control) (Pansy plants [2]; 3 mg ABA, no water, day 3 after treatment, Table 14): 34 % of control
- Transpiration rate (% of control) (Pansy plants [2]; 3 mg ABA, no water, day 4 after treatment, Table 14): 35 % of control
- Transpiration rate (% of control) (Pansy plants [2]; 3 mg ABA, no water, day 5 after treatment, Table 14): 27 % of control
- Transpiration rate (% of control) (Pansy plants [2]; 3 mg ABA, watered, day 1 after treatment, Table 14): 23 % of control
- Transpiration rate (% of control) (Pansy plants [2]; 3 mg ABA, watered, day 2 after treatment, Table 14): 18 % of control
- Transpiration rate (% of control) (Pansy plants [2]; 3 mg ABA, watered, day 3 after treatment, Table 14): 36 % of control
- Transpiration rate (% of control) (Pansy plants [2]; 3 mg ABA, watered, day 4 after treatment, Table 14): 43 % of control
- Transpiration rate (% of control) (Pansy plants [2]; 3 mg ABA, watered, day 5 after treatment, Table 14): 59 % of control
- Transpiration rate (% of control) (Pansy plants [2]; 3 mg ABA, watered, day 7 after treatment, Table 14): 76 % of control
- Transpiration rate (% of control) (Pansy plants [2]; 3 mg ABA, watered, day 10 after treatment, Table 14): 97 % of control
- Transpiration rate (% of control) (Pansy plants [2]; 3 mg ABA, watered, day 15 after treatment, Table 14): 97 % of control
- Transpiration inhibition (Pansy plants [2]; 3 mg ABA, watered, within 5 days after treatment): more than 50%
- Transpiration rate (% of control) (Pansy plants [2]; 30 mg ABA, day 1 after ABA treatment, Table 12): 6 % of control
- Transpiration rate (% of control) (Pansy plants [2]; 30 mg ABA, day 2 after ABA treatment, Table 12): 8 % of control
- Transpiration rate (% of control) (Pansy plants [2]; 30 mg ABA, day 3 after ABA treatment, Table 12): 11 % of control
- Transpiration rate (% of control) (Pansy plants [2]; 30 mg ABA, no water, day 1 after treatment, Table 14): 7 % of control
- Transpiration rate (% of control) (Pansy plants [2]; 30 mg ABA, no water, day 2 after treatment, Table 14): 8 % of control
- Transpiration rate (% of control) (Pansy plants [2]; 30 mg ABA, no water, day 3 after treatment, Table 14): 8 % of control
- Transpiration rate (% of control) (Pansy plants [2]; 30 mg ABA, no water, day 4 after treatment, Table 14): 15 % of control
- Transpiration rate (% of control) (Pansy plants [2]; 30 mg ABA, no water, day 5 after treatment, Table 14): 21 % of control
- Transpiration rate (% of control) (Pansy plants [2]; 30 mg ABA, no water, day 7 after treatment, Table 14): 27 % of control
- Transpiration rate (% of control) (Pansy plants [2]; 30 mg ABA, watered, day 1 after treatment, Table 14): 7 % of control
- Transpiration rate (% of control) (Pansy plants [2]; 30 mg ABA, watered, day 2 after treatment, Table 14): 7 % of control
- Transpiration rate (% of control) (Pansy plants [2]; 30 mg ABA, watered, day 3 after treatment, Table 14): 9 % of control
- Transpiration rate (% of control) (Pansy plants [2]; 30 mg ABA, watered, day 4 after treatment, Table 14): 15 % of control
- Transpiration rate (% of control) (Pansy plants [2]; 30 mg ABA, watered, day 5 after treatment, Table 14): 21 % of control
- Transpiration rate (% of control) (Pansy plants [2]; 30 mg ABA, watered, day 7 after treatment, Table 14): 28 % of control
- Transpiration rate (% of control) (Pansy plants [2]; 30 mg ABA, watered, day 10 after treatment, Table 14): 56 % of control
- Transpiration rate (% of control) (Pansy plants [2]; 30 mg ABA, watered, day 15 after treatment, Table 14): 99 % of control
- Transpiration inhibition (Pansy plants [2]; 30 mg ABA, watered, through 10 days after treatment): more than 50%
